[5FU] = 5-fluorouracil base replacing uracil
Columns and labels:
SW620 colon cancer cells = experiment: WST-1 cell proliferation assay, SW620; assay type: cell-based, human; conditions: SW620, in words, vs controls
Protocol: (§1) For transfections, 1×10^5 cells were plated in six-well plates and transfected with 100 nM of control non-specific miRNA (Thermo Fischer), a modified microRNA, or exogenous native microRNA after 24 hours using Oligofectamine (Thermo Fischer) following the manufacturer's protocols. For reagent free transfection, cells were plated in 6 well plates at (1×10^5) cells per well. Twenty-four hours later 100 pmol miRNA (Control, miR-15a, Mimic-1) were diluted in Optimem (Thermo Fischer) and added to the plate. Media was changed after 24 hours. Media was supplemented with 10% fetal bovine serum (Thermo Fischer). Briefly, cells were cultured in growth media (DMEM/F12 supplemented with B27, 10 ng/mL bFGF, and 20 ng/mL EGF (Life Technologies) in ultra-low attachment flasks) for up to 6 days. […]
(§2) Cell proliferation assay: Twenty-four hours after transfection, cells were seeded in 96-well plates at a density of 2000 cells per well. The cell proliferation assay was performed on days 1 to 5 by incubating 10 μl WST-1 (Roche Applied Science, Mannheim, Germany) in the culture medium for 1 h and reading the absorbance at 450 and 630 nm. The cell proliferation rate was calculated by subtracting the absorbance at 450 nm from the absorbance at 630 nm. […] The O.D. was calculated by subtracting the absorbance at 630 nm from that at 450 nm. […]

AGS stomach cancer cells = experiment: Cell proliferation, AGS; assay type: cell-based, human; conditions: compared to negative controls
Protocol: (§3) For transfections, 1×10^5 cells were plated in six-well plates and transfected with 100 nM of control non-specific miRNA (Thermo Fischer), a modified microRNA, or exogenous native microRNA after 24 hours using Oligofectamine (Thermo Fischer) following the manufacturer's protocols. For reagent free transfection, cells were plated in 6 well plates at (1×10^5) cells per well. Twenty-four hours later 100 pmol miRNA (Control, miR-15a, Mimic-1) were diluted in Optimem (Thermo Fischer) and added to the plate. Media was changed after 24 hours. Media was supplemented with 10% fetal bovine serum (Thermo Fischer). Briefly, cells were cultured in growth media (DMEM/F12 supplemented with B27, 10 ng/mL bFGF, and 20 ng/mL EGF (Life Technologies) in ultra-low attachment flasks) for up to 6 days. The spheroid cells were maintained by collection through gentle centrifugation, dissociation to single cells and replating.
(§4) Cell proliferation assay: Twenty-four hours after transfection, cells were seeded in 96-well plates at a density of 2000 cells per well. The cell proliferation assay was performed on days 1 to 5 by incubating 10 μl WST-1 (Roche Applied Science, Mannheim, Germany) in the culture medium for 1 h and reading the absorbance at 450 and 630 nm. The cell proliferation rate was calculated by subtracting the […]. Experiments for the cell proliferation assay were performed at least three times. The O.D. was calculated by subtracting the absorbance at 630 nm from that at 450 nm. Proliferation experiments were performed three times.

[1] = test system: acute lymphocytic leukemia cell line (REH); experiment: Cell proliferation, REH; assay type: cell-based, human; conditions: 50 nM, 25 nM, 12.5 nM, 6.25 nM, and 3.125 nM
[2] = test system: metastatic human colon cancer cells; experiment: Colon cancer metastasis mouse model, intravenous miRNA delivery; assay type: in vivo; conditions: 40 μg intravenous, every other day for two weeks
Protocol: For in vivo miRNA delivery experiments, colon cancer cells were created that expressed the lenti-luc reporter gene by infecting parental HCT116 cells with a recombinant lentivirus. Luciferase-expressing HCT116 cells (2.0×10^6 cells per mouse) were suspended in 0.1 mL of PBS solution and was injected through tail vein of each mouse. Two weeks after injection of colon cancer cells, mice were treated via tail vein injection with 40 μg of negative control or modified miR(s) packaged with in vivo-jetPEI (Polyplus Transfection). Mice were treated every other day for 2 weeks (8 times). Following treatment, mice were screened using IVIS Spectrum In vivo Imaging System (IVIS) (PerkinElmer).

[3] = test system: acute lymphocytic leukemia cell line (REH); experiment: Cell proliferation, REH; assay type: cell-based, human; conditions: compared to negative controls
Protocol: as §3, §4

[4] = test system: SKBR3 breast cancer cells; experiment: Cell proliferation, SKBR3; assay type: cell-based, human; conditions: SKBR3, compared to negative controls
Protocol: as §3, §4

A549 lung cancer cells = experiment: Cell proliferation, A549; assay type: cell-based, human; conditions: for lung cancer cell proliferation: A549, compared to negative controls; for inhibition of cell proliferation: A549, compared to unmodified miR or negative controls
Protocol: as §3, §4

[5] = test system: AsPC-1 pancreatic cancer cells; experiment: Cell proliferation, AsPC-1; assay type: cell-based, human; conditions: for cell proliferation, dose dependence: APSC-1, 50 nM, 25 nM, 12.5 nM, 6.25 nM, and 3.125 nM
Protocol: as §3, with “For transfections, 1×10^5 cells were plated in six-well plates and transfected with 100 nM of control non-specific miRNA (Thermo Fischer), a modified microRNA, or exogenous native microRNA after 24 hours using Oligofectamine (Thermo Fischer) following the manufacturer's protocols.” left out
as §4

colon cancer stem cells = experiment: Anchorage-independent colony formation (soft agar); assay type: cell-based, human; conditions: soft agar / Matrigel matrix
Protocol: Anchorage-independent proliferation was studied to determine cancer cell colony forming ability. Cancer cells were trypsinized and counted and a total of 1×10^5 cells per well were transfected in 6-well plates with 25 nM modified microRNA or native miRs or a negative control miRNA with oligofectamine, and 6 hours after transfection, cells were recounted. A total of 20,000 cells in 0.35% agar (Bacto Agar; Becton Dickinson) were layered on top of 1 mL of a solidified 0.6% agar layer in a 35-mm dish. Growth media with B27, 10 ng/mL bFGF, and 20 ng/mL EGF were included in both layers. After 2 weeks of incubation, colonies more than […] in diameter were counted.

HCT-116 cells = experiment: Cell cycle analysis by flow cytometry, colon cancer cells; assay type: cell-based, human
Protocol: Cell cycle analysis: Twenty-four hours after transfection, cells were harvested and resuspended at 0.5 to 1×10^6 cells/mL in modified Krishan's buffer supplemented with 0.02 mg/mL RNase H and 0.05 mg/mL propidium iodide. Stained cells were detected by flow cytometry and results were analyzed with Modfit LT™ software. The experiments for cell cycle analysis were performed at least three times.

[6] = test system: Hs766T pancreatic cancer cells; experiment: Cell proliferation, Hs766T; assay type: cell-based, human; conditions: compared to negative controls
Protocol: as §3, §4

[7] = test system: Panc-1 pancreatic cancer cells; experiment: Cell proliferation, Panc-1; assay type: cell-based, human; conditions: for cell proliferation, dose dependence: PANC-1, 50 nM, 25 nM, 12.5 nM, 6.25 nM, and 3.125 nM
Protocol: as §3, with “For transfections, 1×10^5 cells were plated in six-well plates and transfected with 100 nM of control non-specific miRNA (Thermo Fischer), a modified microRNA, or exogenous native microRNA after 24 hours using Oligofectamine (Thermo Fischer) following the manufacturer's protocols.” left out
as §4

RKO colon cancer cells = experiment: WST-1 cell proliferation assay, RKO; assay type: cell-based, human; conditions: in words, vs controls
Protocol: as §1, §2

[8] = test system: HCT116 colon cancer cells; experiment: WST-1 cell proliferation assay, HCT116; assay type: cell-based, human; conditions: for inhibition of colon cancer cell proliferation: HCT116, in words, vs controls
Protocol: as §3, with “1×10^5 cells were plated in six-well plates and transfected with 100 nM of control non-specific miRNA (Thermo Fischer), a modified microRNA, or exogenous native microRNA after 24 hours using Oligofectamine” left out
as §4

Row | Substance | inhibition of colon cancer cell proliferation (SW620 colon cancer cells) | gastric cancer cell proliferation (AGS stomach cancer cells) | leukemia cancer cell proliferation, dose dependence [1] | colon cancer metastasis [2] | toxicity [2] | leukemia cancer cell proliferation [3] | breast cancer cell proliferation [4] | lung cancer cell proliferation (A549 lung cancer cells) | inhibition of cell proliferation (A549 lung cancer cells) | cell proliferation, dose dependence [5] | colony / sphere formation (colon cancer stem cells) | pancreatic cancer cell proliferation [6] | cell proliferation, dose dependence [7] | inhibition of colon cancer cell proliferation (RKO colon cancer cells) | inhibition of colon cancer cell proliferation [8] | also measured
1 | CU^FU^FU^FU^FU^FGCGGU^FCU^FGGGCU^FU^FGC (CUUUUUGCGGUCUGGGCUUGC; RNA, [5FU] at 2, 3, 4, 5, 6, 11, 13, 18, 19, backbone not given here) [modified miR-129] | inhibition of colon cancer cell proliferation | inhibited | inhibited in a dose dependent manner | inhibits colon cancer metastasis | did not exhibit any toxicity | inhibited | inhibited | inhibited | enhanced ability to inhibit | inhibited in a dose dependent manner | formed no visible spheres | inhibited | inhibited in a dose dependent manner | inhibition of colon cancer cell proliferation | inhibition of colon cancer cell proliferation | toxicity ([2]; listed as modified microRNA-129): no toxic side effects; G1 arrest, potency relative to native miR-129 (HCT-116 cells; HCT-116, flow cytometry): more than two-fold; HCT-116 tumor cell growth ([8]; 50 nM): suppress HCT-116 tumor cell growth completely; inhibitory effect on cell proliferation relative to native miR-129 ([8]; HCT-116, FIG. 3): much more potent than the native miR-129
2 | U^FAGCAGCACAU^FAAU^FGGU^FU^FU^FGU^FG (UAGCAGCACAUAAUGGUUUGUG; RNA, [5FU] at 1, 11, 14, 17, 18, 19, 21, backbone not given here) [modified miR-15a] | enhanced ability to inhibit colon cancer cell proliferation | inhibited | inhibited in a dose dependent manner | inhibit colon cancer metastasis | did not exhibit any toxicity | inhibited | inhibited | inhibited | enhanced ability to inhibit | inhibited in a dose dependent manner | no colonies were observed | inhibited | inhibited in a dose dependent manner | enhanced ability to inhibit colon cancer cell proliferation | enhanced ability to inhibit colon cancer cell proliferation | inhibition of cell proliferation ([5]; AsPC-1, compared to unmodified miR or negative controls): enhanced ability to inhibit; increase in the G1/S ratio (HCT-116 cells; colon cancer cells, compared to the control): 7 fold; inhibition of cell proliferation ([7]; Panc-1, compared to unmodified miR or negative controls): enhanced ability to inhibit; decrease of cell proliferation compared to control ([8]; HCT-116, WST-1, six days after transfection): 84%
